This is an account of results in BindingDB's records for doi:10.7270/Q2C53J9J (University of Pittsburgh, 2010).

The target of this experiment is T1, Glucose-6-phosphate 1-dehydrogenase (Leuconostoc mesenteroides, UniProt P11411).
T1 sequence (P11411 whole entry): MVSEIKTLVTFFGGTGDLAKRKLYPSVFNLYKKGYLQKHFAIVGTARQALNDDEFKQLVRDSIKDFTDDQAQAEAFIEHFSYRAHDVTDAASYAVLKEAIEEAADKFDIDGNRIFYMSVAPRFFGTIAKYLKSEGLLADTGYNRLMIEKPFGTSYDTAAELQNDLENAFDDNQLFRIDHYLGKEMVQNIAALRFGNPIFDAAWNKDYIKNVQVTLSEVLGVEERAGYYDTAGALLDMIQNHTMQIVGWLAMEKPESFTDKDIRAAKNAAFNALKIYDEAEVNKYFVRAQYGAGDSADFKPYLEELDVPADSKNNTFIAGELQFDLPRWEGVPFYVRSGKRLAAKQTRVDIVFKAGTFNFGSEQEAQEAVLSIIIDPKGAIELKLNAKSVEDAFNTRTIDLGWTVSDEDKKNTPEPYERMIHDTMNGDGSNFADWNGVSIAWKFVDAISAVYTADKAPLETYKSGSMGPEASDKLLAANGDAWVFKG
In words: Leuconostoc G6PDH inhibition potency, SAR follow-up, counter-screen for TbHK1 inhibitor project, biochemical, analogue series, IC50 (AID 2579). (In general: A counterscreen serves to expose hits that act by an unwanted route or on another target.)
Consider `O=C(Nc1cc(Cl)ccc1C(=O)O)c1ccoc1` [4-chloranyl-2-(furan-3-ylcarbonylamino)benzoic acid], for which the IC50 (commonly the concentration at which inhibition is half-maximal) was above 25 µM. The figure for `Cc1cccc(C(=O)Nc2cc(Cl)ccc2C(=O)O)c1` [4-chloro-2-[[(3-methylphenyl)-oxomethyl]amino]benzoic acid] is above 25 µM; for `O=C(Cn1sc2ccccc2c1=O)Nc1cccc(Br)c1` [N-(3-bromophenyl)-2-(3-oxo-1,2-benzothiazol-2-yl)acetamide] it is above 25 µM. The same measure for `O=C(Cn1sc2ccccc2c1=O)Nc1ccccc1Br`: above 25 µM. The same measure for `O=c1c2ccccc2sn1-c1ccc(Cl)cc1` [2-(4-chlorophenyl)-1,2-benzothiazol-3-one]: above 25 µM; for `CN(C)c1ccc(NC(=O)Cn2sc3ccccc3c2=O)cc1` [KSC-09-127C]: above 25 µM. The compound `CCc1ccc(C(=O)Nc2cc(Br)ccc2C(=O)O)cc1` [4-bromanyl-2-[(4-ethylphenyl)carbonylamino]benzoic acid] yielded an IC50 above 25 µM.

In turn, `COc1ccc(C(=O)N(C)c2cc(Cl)ccc2C(=O)O)cc1` yielded an IC50 above 25 µM. The same measure for `O=C(Nc1cc(Cl)ccc1C(=O)O)c1ccc2c(c1)CCC2` [KUC106492N]: above 25 µM.

`COC(=O)c1ccc(Cl)cc1NC(=O)c1ccc(OC)cc1` [KUC105792N] gave an IC50 above 25 µM. For the compound `N#Cc1ccc(NC(=O)Cn2sc3ccccc3c2=O)cc1` [KUC104552N], the IC50 was above 25 µM. `O=C(Cn1sc2ccccc2c1=O)N1CCCCC1` gave an IC50 above 25 µM.

For `CCOc1ccc(C(=O)Nc2cc(Cl)ccc2C(=O)O)cc1` [4-chloro-2-[[(4-ethoxyphenyl)-oxomethyl]amino]benzoic acid], the IC50 was above 25 µM. Compound `COc1ccc(C(=O)Nc2cc(Cl)ccc2C(=O)O)cc1OC` [4-chloro-2-[(3,4-dimethoxybenzoyl)amino]benzoic acid] had an IC50 above 25 µM.

Turning to `CCCCCCCC(=O)Nc1cc(Cl)ccc1C(=O)O` [KUC106002N], the IC50 was above 25 µM. For the compound `COc1ccc(C(=O)Nc2cc(C)ccc2C(=O)O)cc1` [2-[(4-methoxyphenyl)carbonylamino]-4-methyl-benzoic acid], the IC50 is above 25 µM. In turn, `COc1ccccc1C(=O)Nc1cc(Cl)ccc1C(=O)O` displayed an IC50 above 25 µM.

Compound `O=C(Cn1sc2ccccc2c1=O)NC1CCCCC1` returned an IC50 above 25 µM. The same measure for `CN(C)S(=O)(=O)c1cccc(-n2sc3ccccc3c2=O)c1` [3-(3-keto-1,2-benzothiazol-2-yl)-N,N-dimethyl-benzenesulfonamide]: above 25 µM; for `COc1ccc(-n2sc3ccccc3c2=O)cc1` [KSC-6-098]: above 25 µM; for `COc1ccc(C(=O)Nc2cc(F)ccc2C(=O)O)cc1` [KSC-6-276]: above 25 µM.

`Cc1ccc(C(=O)Nc2cc(Cl)ccc2C(=O)O)cc1C` [KUC106495N] came in with an IC50 above 25 µM. `O=C(Nc1cc(Cl)ccc1C(=O)O)c1ccc2ccccc2c1` [4-chloro-2-[[2-naphthalenyl(oxo)methyl]amino]benzoic acid] registered an IC50 above 25 µM. Compound `O=C(Cn1sc2ccccc2c1=O)Nc1ccc(Br)cc1` [N-(4-bromophenyl)-2-(3-oxo-1,2-benzothiazol-2-yl)acetamide] yielded an IC50 above 25 µM.

With `COc1ccc(C(=O)Nc2cc(C(F)(F)F)ccc2C(=O)O)cc1` [2-[(4-methoxybenzoyl)amino]-4-(trifluoromethyl)benzoic acid], the IC50 is above 25 µM. In turn, `COc1ccc(C(=O)Nc2cc(F)cc(F)c2O)cc1` [N-(3,5-difluoro-2-hydroxyphenyl)-4-methoxybenzamide] came in with an IC50 above 25 µM.

`COc1ccc(C(=O)Nc2ccccc2C(=O)O)cc1` [KUC106458N] displayed an IC50 above 25 µM. The same measure for `COc1ccc(C(=O)Nc2cccc(Cl)c2)cc1`: above 25 µM; for `O=C(O)c1ccc(Cl)cc1NC(=O)N1CCOCC1` [KUC105933N]: above 25 µM. For the compound `CC(C)(C)c1ccc(C(=O)Nc2cc(Cl)ccc2C(=O)O)cc1` [KSC-18-037], the IC50 is above 25 µM. In turn, `N#Cc1ccc(Oc2ccc3c(c2)B(O)OC3)cc1` [KSC-6-289] had an IC50 above 25 µM. The figure for `COc1ccc(C(=O)Nc2cc(Cl)ccc2[N+](=O)[O-])cc1` [KSC-6-266] is above 25 µM. The figure for `COc1ccc(C(=O)O)c(NC(=O)c2ccc(Cl)cc2)c1` is above 25 µM; for `CC(=O)Nc1ccc2sn(-c3ccccc3)c(=O)c2c1` [KSC-6-110] it is above 25 µM. The compound `Cc1ccc(C(=O)Nc2cc(Cl)ccc2C(=O)O)cc1` [4-chloro-2-[(4-methylbenzoyl)amino]benzoic acid] showed an IC50 above 25 µM. The figure for `CCCc1ccc(C(=O)Nc2cc(Cl)ccc2C(=O)O)cc1` is above 25 µM. The same measure for `COc1ccc(NC(=O)Cn2sc3ccccc3c2=O)cc1` [KSC-4-269]: above 25 µM; for `O=C(Nc1cc(Cl)ccc1C(=O)O)c1ccsc1` [KUC105926N]: above 25 µM; for `Cc1ccccc1-n1sc2cc(F)ccc2c1=O` [6-fluoranyl-2-(2-methylphenyl)-1,2-benzothiazol-3-one]: above 25 µM. In the case of `N#Cc1ccc2c(=O)n(-c3ccccc3)sc2c1` [3-oxidanylidene-2-phenyl-1,2-benzothiazole-6-carbonitrile], the IC50 was above 25 µM. The same measure for `Cc1ccccc1N1Cc2ccccc2C1=O` [KUC103869N]: above 25 µM.

`O=C(Cn1sc2ccccc2c1=O)N1CCOCC1` [KUC105406N]: the IC50 was above 25 µM. The same measure for `O=C(Nc1cc(Cl)ccc1C(=O)O)c1ccc(C(F)(F)F)cc1` [4-chloranyl-2-[[4-(trifluoromethyl)phenyl]carbonylamino]benzoic acid]: above 25 µM; for `CCc1ccc(C(=O)Nc2cc(Cl)ccc2C(=O)OC)cc1` [4-chloro-2-[[(4-ethylphenyl)-oxomethyl]amino]benzoic acid methyl ester]: above 25 µM.

As for `O=C(Nc1cc(Cl)ccc1C(=O)O)c1ccncc1` [4-chloro-2-[[oxo(pyridin-4-yl)methyl]amino]benzoic acid], the IC50 was above 25 µM. `COc1ccc(NC(=O)Nc2ccccc2C(=O)O)cc1` [KUC105625N]: the IC50 was above 25 µM.

Compound `COc1ccc(C(=O)Nc2cc(Br)ccc2C(=O)O)cc1` [4-bromo-2-[[(4-methoxyphenyl)-oxomethyl]amino]benzoic acid] yielded an IC50 above 25 µM. For the compound `Cc1ccc(NC(=O)Cn2sc3ccccc3c2=O)cc1` [KUC104219N], the IC50 is above 25 µM. The same measure for `CC(C)c1cccc(C(=O)Nc2cc(Cl)ccc2C(=O)O)c1` [KUC106459N]: above 25 µM; for `O=C(Nc1cc(Cl)ccc1C(=O)O)c1cocn1` [KUC105934N]: above 25 µM; for `COc1ccc2sn(-c3ccccc3)c(=O)c2c1` [KSC-09-048]: above 25 µM. For `Cc1ccc(-n2sc3ccccc3c2=O)cc1` [2-(4-methylphenyl)-1,2-benzisothiazol-3(2H)-one], the IC50 was above 25 µM. The same measure for `COc1cccc(CC(=O)Nc2cc(Cl)ccc2C(=O)O)c1` [4-chloro-2-[[2-(3-methoxyphenyl)-1-oxoethyl]amino]benzoic acid]: above 25 µM. For the compound `O=C(Nc1ccccc1)c1cc(F)ccc1S`, the IC50 was above 25 µM. The figure for `O=C(Cn1sc2ccccc2c1=O)Nc1cccc(I)c1` [KUC104222N] is above 25 µM.

With `O=C(c1ccccc1)n1sc2ccccc2c1=O` [KUC105344N], the IC50 is above 25 µM. The same measure for `COc1ccc(Nc2cc(Cl)ccc2C(=O)O)cc1` [4-chloro-2-(4-methoxyanilino)benzoic acid]: above 25 µM; for `CCOC(=O)c1ccncc1NC(=O)c1ccc(OC)cc1` [3-[[(4-methoxyphenyl)-oxomethyl]amino]-4-pyridinecarboxylic acid ethyl ester]: above 25 µM.

For `O=C(Cn1sc2ccccc2c1=O)Nc1ccc(Cl)cc1` [N-(4-chlorophenyl)-2-(3-oxidanylidene-1,2-benzothiazol-2-yl)ethanamide], the IC50 is above 25 µM. In turn, `O=C(Nc1cc(Cl)ccc1C(=O)O)c1ccc(OC(F)(F)F)cc1` [KUC105992N] yielded an IC50 above 25 µM. The same measure for `O=c1c2cc(F)c(F)cc2sn1-c1ccccc1` [KUC104549N]: above 25 µM. The figure for `O=C(O)c1ccccc1NC(=O)c1ccccc1C(=O)O` is above 25 µM; for `O=C(Nc1cc(Cl)ccc1C(=O)O)c1ccc2c(c1)OCO2` [KUC106004N] it is above 25 µM; for `OB1OCc2cc(C(F)(F)F)ccc21` [KSC-6-287] it is above 25 µM. In turn, `O=c1c2cc(Br)ccc2sn1-c1ccccc1` [KSC-6-175] gave an IC50 above 25 µM.

Compound `COc1ccc(C(=O)Nc2cc(Cl)ccc2C(=O)O)cc1` [4-chloranyl-2-[(4-methoxyphenyl)carbonylamino]benzoic acid] displayed an IC50 above 25 µM. In turn, `O=C(Nc1cc(Cl)ccc1C(=O)O)c1ccc(Cc2ccccc2)cc1` [4-chloranyl-2-[[4-(phenylmethyl)phenyl]carbonylamino]benzoic acid] came in with an IC50 above 25 µM. The figure for `O=C(Nc1cc(Cl)ccc1C(=O)O)c1ccc(C2CC2)cc1` [KUC106496N] is above 25 µM. The same measure for `O=C(O)c1ccc(Cl)cc1NC(=O)C1CCOCC1` [KUC106462N]: above 25 µM.

`COC(=O)c1ccc(Cl)cc1NC(=O)c1ccc(Cl)cc1` displayed a 50% inhibitory concentration (IC50) above 25 µM. The same measure for `Cc1ccccc1NC(=O)Cn1sc2ccccc2c1=O`: above 25 µM; for `O=c1c2ccccc2sn1-c1cccc(F)c1` [KUC103653N]: above 25 µM.
